These results are taken from patent US12035738B2, “Low calorie food compositions” (Mars, Incorporated, priority 2015, dated 2024).

Each structure is given as a SMILES string.

On the set-up of series [1]: species or system humans. Conditions: in vivo. As for the experimental part:
A panel of 10 assessors were used to evaluate sensory differences between cellobiose containing (2 levels; 75% and 100% sucrose substitution) and standard chocolate.
The maximum amount of cellobiose consumed during one 3 hour sensory session was set at 20 g and 8 g respectively (100% cellobiose sample contained 49.5 g cellobiose/100 g, 75% cellobiose sample contained 34.7 g/100 g and 60% inulin sample contained 29.7 g inulin/100 g).
For each attribute, panelists were presented with all samples (˜3.5 g sample size) allowing comparative assessment. Panelists first determined rank order and then assigned ratings using separate line scales for each sample/attribute.
All samples were presented in 2 oz plastic pots labelled with random 3 digit codes. Panelists were provided with unsalted cracker (Rakusen, U.K.), green apple slices and mineral water (Evian, France) for palate cleansing. Attributes were assessed in blocks of 2 followed by 15 mins rest breaks.
(§1) A number of gastro-intestinal symptoms were reported by the panelists in the 24 hours following the sensory sessions, the most common being flatulence (10/10 on at least 1 occasion) and bowel sounds (8/10 on at least 1 occasion). Some degree of […] discomfort was reported by 7/10 panelists on 1 or more occasions and 5 out of the 10 panelists suffered diarrhea following 1 or more sessions. A previous tolerability study carried out using cellobiose (H-09-2011) examined GI effects when cellobiose was delivered in a water based solution and used only male subjects aged between 18-35 yrs. The number and severity of symptoms seen in this study was not expected given the previous tolerability results where cellobiose was consumed as a drink (10, 20, 30 or 50 g of cellobiose was dissolved in 200 ml of hot water and allowed to cool to room temperature overnight). […] With the consumption of 30 g, 4 people (31%) experienced short duration abdominal pain (ranging in severity from 1 to 3 out of 5), 2 people (15%) reported mild flatulence (severity 1 out of 5) and one person reported this at a severity of 3 out of 5. […] Six subjects (46%) reported flatulence (range 1-4 out of 5), and 4 experienced abdominal pain (severity between 1-2 out of 5). Three quarters of subjects were happy to take part in future studies involving the ingestion of cellobiose, even at the highest dose.

A short description of series [2]: Previous tolerability study (H-09-2011), cellobiose consumed as a drink in water based solution. It is filed as in vivo, humans. As for the experimental part:
as §1

For series [3] the following is noted: administered to humans as a drink; cited from earlier work.
The mark [4] stands for this setting: 30 g cellobiose, severity 1 out of 5.

Take `O=C[C@H](O)[C@@H](O)[C@H](O[C@@H]1O[C@H](CO)[C@@H](O)[C@H](O)[C@H]1O)[C@H](O)CO` [cellobiose]: in series [1] (human, 24 h), the “panelists reporting bowel sounds” value is reported as 8/10, the panelists reporting flatulence was 10/10, the “panelists reporting some degree of abominable discomfort” value was 7/10 and the “panelists who suffered diarrhea” value is recorded as 5 out of the 10 panelists. Besides, in series [1], the “Symptoms (y/n)” value was “Y”; the undesirable side effects entry is “stomach cramps, nausea, diarrhea and loss of appetite”. Besides, the abdominal symptoms reported result in series [2] (10 g cellobiose in 200 ml water) is “mild or no abdominal symptoms”. Further, the abdominal symptoms reported result in series [2] (20 g cellobiose in 200 ml water) is listed as “mild or no abdominal symptoms”. In series [2] (30 g cellobiose), the “people who experienced short duration abdominal pain” value is listed as 4 people, the “persons who reported flatulence at a severity of 3 out of 5” value was “one”, the “severity of mild flatulence” value was 1 out of 5 and the “share of people with short duration abdominal pain” value is given as 31%. In series [2] (setting [4]), the “people who reported mild flatulence” value is given as 2 people and the “share of people with mild flatulence” value is 15%. In series [2] (50 g cellobiose), the abdominal pain severity is on record as 1-2 out of 5, the flatulence severity range is listed as 1-4 out of 5, the “persons who reported diarrhea in the first 24 h” value is listed as 1 and the “persons with a single episode of diarrhea 2 h after consuming” value is given as 1 person. In series [2] (50 g cellobiose), the “share of subjects who reported flatulence” value worked out at 46%, the “subjects who experienced abdominal pain” value is given as 4 and the “subjects who reported flatulence” value is on record as “Six”. Besides, the unpleasant side effects entry in series [3] is given as “not observed to such a great degree”.
